# Assays:
# Assay in all cases: MIC and MBC testing, broth microdilution
# E. faecium ATCC 35667 = assay type: cell-based, Enterococcus faecium; conditions: Enterococcus faecium, ATCC35667, E. faecium ATCC 35667; for MIC: 18 h, read-out: MIC; for MBC: read-out: MBC
# Description: (§1) The minimum inhibitory concentrations (MICs) and minimum bactericidal concentrations (MBCs) of the synthesized compounds effective against ESKAPE strains, S. aureus clinical isolates, and MRSA were investigated by the broth dilution method. Levofloxacin is a broad-spectrum antibacterial agent that is widely used in the treatment of ESKAPE infections. Therefore, levofloxacin was selected as the positive control for the preliminary activity screening. DMSO (0.1%) was selected as the negative control.
# (§2) The minimum inhibitory concentration (MIC) of all synthesized compounds was tested by the broth microdilution method. In brief, compounds dissolved in DMSO were diluted twice continuously in a 96-well plate with MH broth. The ESKAPE pathogens (E. coli ATCC 25922, S. aureus ATCC 29213, K. pneumoniae ATCC 700603, A. baumannii ATCC 19606, P. aeruginosa ATCC 27853, and E. faecium ATCC 35667), clinical S. aureus isolates (LMY45, LMY46, LMY47, and LMY48) and methicillin-resistant Staphylococcus aureus (MRSA-1 and MRSA-2) were cultured in MH broth to logarithmic growth phase and then diluted to 1 × 10^6 CFU/mL in MH broth. Subsequently, the diluted bacterial solution was mixed with the diluted compound solution in a 96-well plate and incubated at 37 °C for a duration of 18 h. The MIC of the compounds was recorded as the lowest concentration at which no visible growth was observed. […] Each concentration was replicated thrice.
# S. aureus ATCC 29213 = assay type: cell-based, Staphylococcus aureus; conditions: Staphylococcus aureus, ATCC29213, S. aureus ATCC 29213; for MIC: 18 h, read-out: MIC; for MBC: read-out: MBC
# Description: as §1, §2
# [1] = system: K. pneumoniae ATCC 700603; assay type: cell-based, Klebsiella pneumoniae; conditions: Klebsiella pneumoniae; for MIC: ATCC700603, 18 h, read-out: MIC; for MBC: ATCC700603, read-out: MBC
# Description: as §1, §2
# A. baumannii ATCC 19606 = assay type: cell-based, Acinetobacter baumannii; conditions: Acinetobacter baumannii; for MIC: ATCC19606, 18 h, read-out: MIC; for MBC: ATCC19606, read-out: MBC
# Description: as §1, §2
# P. aeruginosa ATCC 27853 = assay type: cell-based, Pseudomonas aeruginosa; conditions: Pseudomonas aeruginosa; for MIC: ATCC27853, 18 h, read-out: MIC; for MBC: ATCC27853, read-out: MBC
# Description: as §1, §2
# E. coli ATCC 25922 = assay type: cell-based, Escherichia coli; conditions: Escherichia coli; for MIC: ATCC25922, 18 h, read-out: MIC; for MBC: ATCC25922, read-out: MBC
# Description: as §1, §2
# MRSA-1 = assay type: cell-based, Staphylococcus aureus; conditions: Staphylococcus aureus, MRSA-1; for MIC: 18 h, read-out: MIC; for MBC: read-out: MBC
# Description: (§3) Furthermore, the MBC values of the compounds were detected.
# as §2, with “h.” for “h. The MIC of the compounds was recorded as the lowest concentration at which no visible growth was observed.”
# MRSA-2 = assay type: cell-based, Staphylococcus aureus; conditions: Staphylococcus aureus, MRSA-2; for MIC: 18 h, read-out: MIC; for MBC: read-out: MBC
# Description: as §3
# as §2, with “h.” for “h. The MIC of the compounds was recorded as the lowest concentration at which no visible growth was observed.”
# [2] = system: clinical S. aureus isolate LMY45; assay type: cell-based, Staphylococcus aureus; conditions: Staphylococcus aureus, LMY45; for MIC: 18 h, read-out: MIC; for MBC: read-out: MBC
# Description: as §3
# as §2, with “h.” for “h. The MIC of the compounds was recorded as the lowest concentration at which no visible growth was observed.”
# [3] = system: clinical S. aureus isolate LMY46; assay type: cell-based, Staphylococcus aureus; conditions: Staphylococcus aureus, LMY46; for MIC: 18 h, read-out: MIC; for MBC: read-out: MBC
# Description: as §3
# as §2, with “h.” for “h. The MIC of the compounds was recorded as the lowest concentration at which no visible growth was observed.”
# [4] = system: clinical S. aureus isolate LMY47; assay type: cell-based, Staphylococcus aureus; conditions: Staphylococcus aureus, LMY47; for MIC: 18 h, read-out: MIC; for MBC: read-out: MBC
# Description: as §3
# as §2, with “h.” for “h. The MIC of the compounds was recorded as the lowest concentration at which no visible growth was observed.”
# [5] = system: clinical S. aureus isolate LMY48; assay type: cell-based, Staphylococcus aureus; conditions: Staphylococcus aureus, LMY48; for MIC: 18 h, read-out: MIC; for MBC: read-out: MBC
# Description: as §3
# as §2, with “h.” for “h. The MIC of the compounds was recorded as the lowest concentration at which no visible growth was observed.”
MIC (E. faecium ATCC 35667),MIC (S. aureus ATCC 29213),MIC [1],MIC (A. baumannii ATCC 19606),MIC (P. aeruginosa ATCC 27853),MIC (E. coli ATCC 25922),MIC (MRSA-1),MIC (MRSA-2),MIC [2],MIC [3],MIC [4],MIC [5],SMILES,MBC (E. faecium ATCC 35667),MBC (S. aureus ATCC 29213),MBC (MRSA-1),MBC (MRSA-2),MBC [2],MBC [3],MBC [4],MBC [5],also measured
4 µg/mL,2 µg/mL,16 µg/mL,8 µg/mL,32 µg/mL,4 µg/mL,2 µg/mL,2 µg/mL,2 µg/mL,2 µg/mL,2 µg/mL,2 µg/mL,"[H]/N=C(\N)NN=C1CCCc2cc(OCc3ccc(F)c(F)c3)ccc21 [Compound 1H, (E)-2-(6-((3,4-difluorobenzyl)oxy)-3,4-dihydronaphthalen-1(2H)-ylidene)hydrazine-1-carboximidamide]",16 µg/mL,8 µg/mL,32 µg/mL,8 µg/mL,4 µg/mL,> 32 µg/mL,8 µg/mL,4 µg/mL,MBC [1]: 32 µg/mL; MBC (A. baumannii ATCC 19606): 8 µg/mL; MBC (P. aeruginosa ATCC 27853): 32 µg/mL; MBC (E. coli ATCC 25922): 16 µg/mL
2 µg/mL,1 µg/mL,8 µg/mL,4 µg/mL,8 µg/mL,4 µg/mL,4 µg/mL,2 µg/mL,8 µg/mL,8 µg/mL,2 µg/mL,4 µg/mL,"[H]/N=C(\N)NN=C1CCCc2cc(OCCCCCC)ccc21 [Compound 2C, (E)-2-(6-(hexyloxy)-3,4-dihydronaphthalen-1(2H)-ylidene)hydrazine-1-carboximidamide]",8 µg/mL,8 µg/mL,16 µg/mL,4 µg/mL,32 µg/mL,16 µg/mL,8 µg/mL,32 µg/mL,MBC [1]: 8 µg/mL; MBC (A. baumannii ATCC 19606): 4 µg/mL; MBC (P. aeruginosa ATCC 27853): 16 µg/mL; MBC (E. coli ATCC 25922): 4 µg/mL
2 µg/mL,4 µg/mL,> 32 µg/mL,8 µg/mL,32 µg/mL,8 µg/mL,2 µg/mL,2 µg/mL,4 µg/mL,2 µg/mL,2 µg/mL,4 µg/mL,"CC(C)=CCC/C(C)=C/COc1ccc2c(c1)CCC/C2=N\NC(=N)N [Compound 2J, 2-((E)-6-(((E)-3,7-dimethylocta-2,6-dien-1-yl)oxy)-3,4-dihydronaphthalen-1(2H)-ylidene)hydrazine-1-carboximidamide]",8 µg/mL,8 µg/mL,16 µg/mL,16 µg/mL,16 µg/mL,> 32 µg/mL,16 µg/mL,8 µg/mL,MBC (A. baumannii ATCC 19606): 16 µg/mL; MBC (P. aeruginosa ATCC 27853): 32 µg/mL; MBC (E. coli ATCC 25922): 16 µg/mL
2 µg/mL,2 µg/mL,> 32 µg/mL,> 32 µg/mL,> 32 µg/mL,> 32 µg/mL,2 µg/mL,1 µg/mL,2 µg/mL,2 µg/mL,2 µg/mL,1 µg/mL,"[H]/N=C(\N)NN=C1CCCc2cc(OCCCCCCCCC)ccc21 [Compound 2F, (E)-2-(6-(nonyloxy)-3,4-dihydronaphthalen-1(2H)-ylidene)hydrazine-1-carboximidamide]",4 µg/mL,8 µg/mL,2 µg/mL,2 µg/mL,4 µg/mL,4 µg/mL,8 µg/mL,2 µg/mL,

# — PMC12250302, “Synthesis, Antimicrobial Activities, and Model of Action of Novel Tetralone Derivatives Containing Aminoguanidinium Moiety” (International Journal of Molecular Sciences, 2025)
